# Test results: patent US20130109693A1, “DERIVATIVES OF PYRIDO [3,2-D] PYRIMIDINE, METHODS FOR PREPARATION THEREOF AND THERAPEUTIC USES THEREOF” (UNIVERSITE D'ORLEANS, priority 2010, published 2013)
row,Compound,melting point
1,"O=Cc1ccc(-c2cnc3cnc(-c4ccc(O)cc4)nc3c2)cc1 [Compound 42, 2-(4-Hydroxyphenyl)-7-(4-formylphenyl)-pyrido[3,2-d]pyrimidine]",> 268 °C
2,"O=Cc1cccc(-c2cnc3cnc(-c4ccc(O)cc4)nc3c2)c1 [Compound 44, 2-(4-Hydroxyphenyl)-7-(3-formylphenyl)-pyrido[3,2-d]pyrimidine]",266 °C
3,"COc1cccc(-c2nc(-c3ccccc3)c3ncc(-c4ccco4)cc3n2)c1 [Compound 12, 7-(2-Furyl)-2-(3-methoxyphenyl)-4-phenyl-pyrido[3,2-d]pyrimidine]",131 to 132 °C
4,"OCc1cccc(-c2cnc3cnc(-c4ccc(O)cc4)nc3c2)c1 [Compound 45, 2-(4-Hydroxyphenyl)-7-(3-hydroxymethylphenyl)-pyrido[3,2-d]pyrimidine]",232 °C
5,"Oc1ccc(-c2ncc3ncc(Nc4ccncc4)cc3n2)cc1 [Compound 55, 2-(4-Hydroxyphenyl)-7-(4-pyridinylamino)-pyrido[3,2-d]pyrimidine]",> 268 °C
6,"Oc1ccccc1-c1ncc2ncc(Cl)cc2n1 [Compound 19, 7-Chloro-2-(2-hydroxyphenyl)-pyrido[3,2-d]pyrimidine]",211 to 212 °C
7,"COc1cccc(-c2nc(-c3ccccc3)c3ncc(-c4ccc(C(C)=O)cc4)cc3n2)c1 [Compound 9, 7-(4-Acetylphenyl)-2-(3-methoxyphenyl)-4-phenyl-pyrido[3,2-d]pyrimidine]",133 to 134 °C
8,"COc1cccc(-c2nc(-c3ccccc3)c3ncc(-c4cccs4)cc3n2)c1 [Compound 15, 2-(3-Methoxyphenyl)-4-phenyl-7-(2-thienyl)-pyrido[3,2-d]pyrimidine]",140 to 141 °C
9,"Clc1cnc2c(-c3ccccc3)nc(-c3ccccc3)nc2c1 [Compound 4, 7-Chloro-2,4-diphenyl-pyrido[3,2-d]pyrimidine]",120 to 121 °C
10,"Oc1ccc(-c2ncc3ncc(-c4ccc(S)cc4)cc3n2)cc1 [Compound 27, 2-(4-Hydroxyphenyl)-7-(4-mercaptophenyl)-pyrido[3,2-d]pyrimidine]",222 to 223 °C
11,"N#Cc1ccc(-c2cnc3cnc(-c4ccc(O)cc4)nc3c2)cc1 [Compound 28, 2-(4-Hydroxyphenyl)-7-(4-cyanophenyl)-pyrido[3,2-d]pyrimidine]",313 to 314 °C
12,"COc1ccc(-c2nc(-c3ccccc3)c3ncc(Cl)cc3n2)cc1 [Compound 5, 7-Chloro-2-(4-methoxyphenyl)-4-phenyl-pyrido[3,2-d]pyrimidine]",193 to 194 °C
13,"Oc1cccc(-c2ncc3ncc(Cl)cc3n2)c1 [Compound 18, 7-Chloro-2-(3-hydroxyphenyl)-pyrido[3,2-d]pyrimidine]",252 to 253 °C
14,"Oc1ccc(-c2cnc3cnc(-c4ccccc4O)nc3c2)cc1 [Compound 31, 2-(2-Hydroxyphenyl)-7-(4-hydroxyphenyl)-pyrido[3,2-d]pyrimidine]",> 268 °C
15,"N#Cc1cccc(-c2cnc3cnc(-c4ccc(O)cc4)nc3c2)c1 [Compound 29, 2-(4-Hydroxyphenyl)-7-(3-cyanophenyl)-pyrido[3,2-d]pyrimidine]",> 268 °C
16,"COc1ccccc1-c1nc(-c2ccccc2)c2ncc(Cl)cc2n1 [Compound 7, 7-Chloro-2-(2-methoxyphenyl)-4-phenyl-pyrido[3,2-d]pyrimidine]",116 to 117 °C
17,"Oc1ccc(-c2cnc3cnc(-c4cccc(O)c4)nc3c2)cc1 [Compound 30, 2-(3-Hydroxyphenyl)-7-(4-hydroxyphenyl)-pyrido[3,2-d]pyrimidine]",> 268 °C
18,"COc1cccc(-c2nc(-c3ccccc3)c3ncc(Cl)cc3n2)c1 [Compound 6, 7-Chloro-2-(3-methoxyphenyl)-4-phenyl-pyrido[3,2-d]pyrimidine]",112 to 113 °C
19,"COc1cc(O)ccc1-c1cnc2cnc(-c3ccc(O)cc3)nc2c1 [Compound 43, 2-(4-hydroxyphenyl)-7-(2-methoxy-4-hydroxyphenyl)-pyrido[3,2-d]pyrimidine]",207 to 208 °C
20,"COc1cccc(-c2nc(-c3ccccc3)c3ncc(-c4csc5ccccc45)cc3n2)c1 [Compound 14, 7-(3-Benzothienyl)-2-(3-methoxyphenyl)-4-phenyl-pyrido[3,2-d]pyrimidine]",112 to 113 °C
21,"COc1cccc(-c2nc(-c3ccccc3)c3ncc(-c4cccnc4)cc3n2)c1 [Compound 13, 2-(3-Methoxyphenyl)-4-phenyl-7-(3-pyridyl)-pyrido[3,2-d]pyrimidine]",134 to 135 °C
22,"COc1ccc(-c2cnc3c(-c4ccccc4)nc(-c4cccc(OC)c4)nc3c2)cc1 [Compound 8, 2-(3-Methoxyphenyl)-7-(4-methoxyphenyl)-4-phenyl-pyrido[3,2-d]-pyrimidine]",147 to 148 °C
23,"Oc1ccc(-c2ncc3ncc(-c4ccoc4)cc3n2)cc1 [Compound 36, 2-(4-Hydroxyphenyl)-7-(3-furyl)-pyrido[3,2-d]pyrimidine]",> 268 °C

# Now from value to molecule:
row,melting point,Compound
1,> 268 °C,"O=C1CCCN1c1cnc2cnc(-c3ccc(O)cc3)nc2c1 [Compound 72, 1-[2-(4-Hydroxy-phenyl)-pyrido[3,2-d]pyrimidin-7-yl]-pyrrolidin-2-one]"
2,230 to 232 °C,"O=C(Nc1cnc2cnc(-c3ccc(O)cc3)nc2c1)c1ccncc1 [Compound 71, N-[2-(4-Hydroxy-phenyl)-pyrido[3,2-d]pyrimidin-7-yl]isonicotinamide]"
3,106 to 107 °C,"OCCNc1nc(NCc2ccccc2)c2ncc(Cl)cc2n1 [Compound 82, 4-Benzylamino-7-chloro-2-(2-hydroxyethylamino)-pyrido[3,2-d]pyrimidine]"
4,168 to 170 °C,"Oc1ccc(Nc2cnc3cnc(-c4ccc(O)cc4)nc3c2)cc1 [Compound 58, 2-(4-Hydroxyphenyl)-7-(4-hydroxyphenylamino)-pyrido[3,2-d]pyrimidine]"
5,> 268 °C,"COCOc1ccc(-c2ncc3ncc(Cl)cc3n2)cc1 [Compound 64, 7-Chloro-2-(4-methoxymethoxy-phenyl)-pyrido[3,2-d]pyrimidine]"
6,> 268 °C,"COCOc1ccc(-c2ncc3ccc(-c4csc(CN5CCOCC5)c4)nc3n2)cc1 [Compound 76, 2-(4-Methoxymethoxy-phenyl)-7-(5-morpholin-4-ylmethyl-thiophen-3-yl)-pyrido[2,3-d]pyrimidine]"
7,232 °C,"COCOc1ccc(-c2ncc3ncc(NC(=O)c4cccnc4)cc3n2)cc1 [Compound 65, N-[2-(4-Methoxymethoxy-phenyl)-pyrido[3,2-d]pyrimidin-7-yl]-nicotinamide]"
8,202 to 204 °C,"COCOc1ccc(-c2ncc3ncc(N4CCCCC4=O)cc3n2)cc1 [Compound 66, 1-[2-(4-Methoxymethoxy-phenyl)-pyrido[3,2-d]pyrimidin-7-yl]-piperidin-2-one]"
9,200 to 202 °C,"COCOc1ccc(-c2ncc3ncc(N4CCNCC4=O)cc3n2)cc1 [Compound 67, 1-[2-(4-Methoxymethoxy-phenyl)-pyrido[3,2-d]pyrimidin-7-yl]-piperazin-2-one]"
10,226 to 228 °C,"O=C(Nc1cnc2cnc(-c3ccc(O)cc3)nc2c1)c1cccnc1 [Compound 68, N-[2-(4-Hydroxy-phenyl)-pyrido[3,2-d]pyrimidin-7-yl]nicotinamide]"
11,> 268 °C,"COCOc1ccc(-c2ncc3ccc(-c4csc(CN5CCCCC5)c4)nc3n2)cc1 [Compound 75, 2-(4-Methoxymethoxy-phenyl)-7-(5-piperidin-1-ylmethyl-thiophen-3-yl)-pyrido[2,3-d]pyrimidine]"
12,> 268 °C,"Oc1ccc(-c2ncc3ccc(-c4csc(CN5CCOCC5)c4)nc3n2)cc1 [Compound 79, 4-[7-(5-Morpholin-4-ylmethyl-thiophen-3-yl)-pyrido[2,3-d]pyrimidin-2-yl]-phenol]"
13,202 to 203 °C,"OCCNc1nc(NCc2ccccc2)c2ncc(Nc3ncncn3)cc2n1 [Compound 88, 4-Benzylamino-2-(2-hydroxyethylamino)-7-(1,3,5-triazinylamino)-pyrido[3,2-d]pyrimidine]"
14,> 268 °C,"Oc1ccc(-c2ncc3ncc(Nc4ccccn4)cc3n2)cc1 [Compound 57, 2-(4-Hydroxyphenyl)-7-(2-pyridinylamino)-pyrido[3,2-d]pyrimidine]"
15,> 268 °C,"Oc1ccc(-c2ncc3ccc(-c4csc(CN5CCCCC5)c4)nc3n2)cc1 [Compound 78, 4-[7-(5-Piperidin-1-ylmethyl-thiophen-3-yl)-pyrido[2,3-d]pyrimidin-2-yl]-phenol]"
16,> 268 °C,"O=C1CNCCN1c1cnc2cnc(-c3ccc(O)cc3)nc2c1 [Compound 70, 1-[2-(4-Hydroxy-phenyl)-pyrido[3,2-d]pyrimidin-7-yl]-piperazin-2-one]"
17,268 to 270 °C,"O=C1CCCCN1c1cnc2cnc(-c3ccc(O)cc3)nc2c1 [Compound 69, 1-[2-(4-Hydroxy-phenyl)-pyrido[3,2-d]pyrimidin-7-yl]-piperidin-2-one]"
18,> 268 °C,"COCOc1ccc(-c2ncc3ccc(-c4csc(CN5CCN(C)CC5)c4)nc3n2)cc1 [Compound 77, 2-(4-Methoxymethoxy-phenyl)-7-[5-(4-methyl-piperazin-1-ylmethyl)-thiophen-3-yl]-pyrido[2,3-d]pyrimidine]"
